According to US4431655A, “2,4-Disubstituted-1,2,5-thiadiazol-3(2H)-one antimicrobials” (Merck & Co., Inc., priority 1982, dated 1984):
In brackets after ≈: the same amount, converted by molar mass.

Columns and labels:
[1] = Ring stability to hydrolysis, UV absorption changes with time; type: physicochemical; settings: equal volumes methanol-aqueous phosphate buffer (pH 8); for remaining at 1 h: read-out: % Compound Remaining after 1 hr; for remaining at 16 h: read-out: % Compound Remaining after 16 hr; for remaining at 48 h: read-out: % Compound Remaining after 48 hr; for remaining at 165 h: read-out: % Compound Remaining after 165 hr; for remaining at 336 h: read-out: % Compound Remaining after 336 hr
Description: Solutions of these compounds were prepared using equal volumes of methanol-aqueous phosphate buffer (pH 8), and decomposition by cleavage of the heterocyclic ring was monitored using ultraviolet absorption changes with time.

[2] = tested on: Verticillium dahliae MF 2416; experiment: In vitro minimal inhibitory concentration in nutrient agar; type: cell-based; settings: MF2416
[3] = tested on: Sclerotinia sclerotiorum MF 4739; experiment: as above; type: cell-based; settings: MF4739
Monilia nigra MF 3084 = experiment: as above; type: cell-based; settings: Moniliella suaveolens, MF3084
[4] = tested on: Rhizoctonia solani MF 4579; experiment: as above; type: cell-based; settings: MF4579
[5] = tested on: Cladosporium Fulvum MF 3238; experiment: as above; type: cell-based; settings: Fulvia fulva
[6] = tested on: Helminthosporium maydis MF 4775; experiment: as above; type: cell-based; settings: Bipolaris maydis, MF4775
[7] = tested on: Fusarium oxysporum MF 3413; experiment: as above; type: cell-based; settings: MF3413
[8] = tested on: Penicillium digitatum MF 4590; experiment: as above; type: cell-based; settings: MF4590
[9] = tested on: Diaperthe phaseolorum MF 4668; experiment: as above; type: cell-based
[10] = tested on: Helminthosporium oryzae MF 4806; experiment: as above; type: cell-based; settings: Bipolaris oryzae, MF4806
Aspergillus niger MF 11 = experiment: as above; type: cell-based; settings: MF11
[11] = tested on: Colletotrichum lagenarium MF 4800; experiment: as above; type: cell-based; settings: Colletotrichum orbiculare, MF4800
Botrytis cinerea MF 4803 = experiment: as above; type: cell-based; settings: MF4803
[12] = tested on: Thielaviopsis basicola MF 3147; experiment: as above; type: cell-based; settings: Berkeleyomyces basicola, MF3147
[13] = tested on: Cercospora beticola MF 4571; experiment: as above; type: cell-based; settings: MF4571
Alternaria citri MF 2970 = experiment: as above; type: cell-based; settings: MF2970
[14] = tested on: Phytophthora cambivora MF 3753; experiment: as above; type: cell-based

Row | SMILES | % Compound Remaining after 0 hr [1] | remaining at 1 h [1] | remaining at 16 h [1] | remaining at 48 h [1] | remaining at 165 h [1] | remaining at 336 h [1] | further results
1 | CCCc1nsn(Cc2ccccc2)c1=O | 100% | 100% | 100% | 100% | 90% | 90% | 
2 | O=c1cnsn1Cc1ccccc1 | 100% | 100% | 96% | 80% | 50% | 26% | 
3 | Cc1nsn(Cc2ccc(Cl)cc2)c1=O [2-[(4-Chlorophenyl)methyl]-4-methyl-1,2,5-thiadiazol-3(2H)-one] |  |  |  |  |  |  | MIC [2]: 4 µg/mL (≈ 16.6 µM); MIC [3]: 0.8 µg/mL (≈ 3.32 µM); MIC (Monilia nigra MF 3084): 2 µg/mL (≈ 8.31 µM); MIC [4]: 8 µg/mL (≈ 33.2 µM); MIC [5]: 1 µg/mL (≈ 4.15 µM); MIC [6]: 0.4 µg/mL (≈ 1.66 µM); MIC [7]: 4 µg/mL (≈ 16.6 µM); MIC [8]: 4 µg/mL (≈ 16.6 µM); MIC [9]: 0.4 µg/mL (≈ 1.66 µM); MIC [10]: 1 µg/mL (≈ 4.15 µM); MIC (Aspergillus niger MF 11): 4 µg/mL (≈ 16.6 µM); MIC [11]: 2 µg/mL (≈ 8.31 µM); MIC (Botrytis cinerea MF 4803): 1 µg/mL (≈ 4.15 µM); MIC [12]: 4 µg/mL (≈ 16.6 µM); MIC [13]: 1 µg/mL (≈ 4.15 µM); MIC (Alternaria citri MF 2970): 4 µg/mL (≈ 16.6 µM); MIC [14]: 2 µg/mL (≈ 8.31 µM)
4 | Cc1nsn(Cc2ccc(Cl)cc2)c1=O [drawing 23] | 100% | 100% | 100% | 97% | 93% | 91% | 

Now from value to compound, other results behind:

Row | % Compound Remaining after 0 hr [1] | remaining at 1 h [1] | remaining at 16 h [1] | remaining at 48 h [1] | remaining at 165 h [1] | remaining at 336 h [1] | SMILES | further results
5 | 100% | 100% | 100% | 100% | 100% | 99% | CCCCCCn1snc(C)c1=O [CH3, n-C6 H13, 2-n-Hexyl-4-methyl-1,2,5-thiadiazol-3(2H)-one] | 
6 | 100% | 48% | 6% | 0% |  |  | O=c1c(Cl)nsn1Cc1ccccc1 [reference compound] | 
7 | 100% |  | 0% | 0% |  |  | O=c1c(Cl)nsn1Cc1ccc(Cl)cc1 [reference compound] | 
